# Literature values as cited in patent publication US12702640B2, “Drug implants containing enzalutamide and methods of use thereof” (The Regents of the University of California, priority 2021, dated 2026).
# Conditions: assuming 240 mg daily dose; systemic (e.g., oral) administration
smiles,measurement,value
"CNC(=O)c1ccc(N2C(=S)N(c3ccc(C#N)c(C(F)(F)F)c3)C(=O)C2(C)C)cc1F [enzalutamide, Enzalutamide]",steady state blood plasma concentration,about 6 μg/ml
